Laboratory results taken from PMC4564001 (Bioorganic & medicinal chemistry letters, 2015).

Experiments:
[1] = Aqueous solubility; assay type: physicochemical; conditions: qualitative statement
[2] = assay type: in vivo; conditions: DPS vehicle
[3] = assay type: in vitro ADME; conditions: data not shown
[4] = assay type: in vitro ADME, human; conditions: 1 μM, 37°C, LC-MS/MS
[5] = tested on: neutrophil influx; experiment: Ozone rat model of pulmonary inflammation; assay type: in vivo, Sprague-Dawley rats

| Structure (SMILES) | Aqueous solubility [1] | Rat PK AUC @ 1 mg/kg IV [2] [µM·h] | Stability in rat plasma (6 vs 7) [3] | Human Plasma stability (% remaining) 1 hr [4] [% remaining] | Human Plasma stability (% remaining) 4 hr [4] [% remaining] | Human Plasma stability (% remaining) 24 hr [4] [% remaining] | Reduction of neutrophil influx (BALF) ([5]; single IV dose 1 mg/kg at t = 0, 1 ppm ozone 4 hours, BALF at 24 hours) | Effectiveness at reducing neutrophil influx relative to 6 ([5]; single IV dose 1 mg/kg, ozone model, side-by-side with 6) |
| --- | --- | --- | --- | --- | --- | --- | --- | --- |
| CN(Cc1ccc(B(O)O)cn1)c1ncc(C(=O)Nc2ccc(F)cc2)cn1 [Compound 23] | improved aqueous solubility |  |  |  |  |  |  |  |
| O=C(Nc1ccc(F)cc1)c1ccc(SCc2cc(OC(F)(F)F)ccc2B(O)O)nc1 [Compound 6, 6-(2-boronic acid-5-trifluoromethoxy-benzylsulfanyl)-N-(4-fluoro-phenyl)-nicotinamide] |  | 5.40 | no significant difference | 62 | 34 | 2 | modest reduction in neutrophil influx |  |
| CN(Cc1ccc(B(O)O)cn1)c1ccc(C(=O)Nc2ccc(F)cc2)cn1 [Compound 22] | improved aqueous solubility |  |  |  |  |  |  |  |
| O=C(Nc1ccc(F)cc1)c1cnc(N(Cc2ccccc2)Cc2ccc(B(O)O)cn2)nc1 [Compound 7, (2-{(Benzyl)[(5-boronic acid-2-pyridyl)methyl]amino}-5-pyrimidinyl)(4-fluorophenylamino)formaldehyde] |  |  | no significant difference | 90 | 71 | 62 |  | twice as effective |
